# Reference: patent US20080009506A1, “Imidazole Compound” (priority 2004, published 2008)
# Tested on: rhythmic bladder contractions induced by substance P
# Experiment: Inhibitory effect on the rhythmic bladder contractions induced by substance P in anesthetized rats
# Type: in vivo, Sprague-Dawley female rats
# Details: 0.25 mg/kg, intravenous, urethane-anesthetized rats, substance P 0.33 μg/kg/min infusion
# Procedure: For the experiments, Sprague-Dawley female rats (9 to 12 weeks old) weighing between 200 to 300 g were used. After urethane anesthetization (subcutaneously administered with a dose of 1.2 g/kg), cannulae were placed in both right and left femoral veins. One intravenous catheter was used for administration of compounds, and the other was for the substance P (0.33 μg/kg/min) infusion. We also cannulated into ureter to pass urine. Polyethylene catheters were inserted into carotid artery for continuous monitoring of arterial blood pressure and heart rate. For continuous infusion, transurethral bladder catheter was inserted into the bladder through the urethra and tied in place by a ligature around the urethral orifice. One end of the catheter was attached to a pressure transducer in order to measure intravesical pressure. The other end of the catheter was used for infusion of saline into the bladder. After stabilization of blood pressure and heart rate and after the bladder was emptied, cystometry was performed by filling the bladder slowly with about 0.6 ml of saline. After about 10 minutes, intravenous infusion of substance P (0.33 μg/kg/min) was started for stabilization of the micturition reflex. Compounds were administered after stable rhythmic bladder contraction was obtained over 15 minutes. […]
smiles,measurement,value
NC(=O)c1ccc(-n2cc(C(F)(F)F)nc2-c2ccccc2)cc1 [Example 1 (Compound 4)],100% inhibition time: time during which the frequency of the rhythmic contraction had been completely inhibited,10.08 min
